ChEMBL document CHEMBL3297733, “Discovery and optimization of pyrrolo[1,2-a]pyrazinones leads to novel and selective inhibitors of PIM kinases” (Bioorg Med Chem, 2013)

Tests used:
[1] = Apparent permeability from apical to basolateral side in human Caco2 cells after 120 mins by LC-MS/MS analysis; conditions: Caco-2
[2] = Cytotoxicity against mouse BA/F3 cells overexpressing PIM1 after 72 hrs by CellTitre-Glo assay; type: functional, cell-based; conditions: BaF3, 72 h
[3] = Intrinsic clearance in human liver microsomes after 5 mins by LC-MS/MS analysis; type: ADME; conditions: read-out: CLH
[4] = biological target: Serine/threonine-protein kinase pim-2 (Homo sapiens, UniProt Q9P1W9); assay: Inhibition of human PIM2 using ARK-RERTYSFGHHA as substrate incubated for 60 mins prior to substrate addition by topcount scintillation counting analysis in presence of [P33gamma]-ATP
Sequence of Serine/threonine-protein kinase pim-2 (Q9P1W9 whole entry): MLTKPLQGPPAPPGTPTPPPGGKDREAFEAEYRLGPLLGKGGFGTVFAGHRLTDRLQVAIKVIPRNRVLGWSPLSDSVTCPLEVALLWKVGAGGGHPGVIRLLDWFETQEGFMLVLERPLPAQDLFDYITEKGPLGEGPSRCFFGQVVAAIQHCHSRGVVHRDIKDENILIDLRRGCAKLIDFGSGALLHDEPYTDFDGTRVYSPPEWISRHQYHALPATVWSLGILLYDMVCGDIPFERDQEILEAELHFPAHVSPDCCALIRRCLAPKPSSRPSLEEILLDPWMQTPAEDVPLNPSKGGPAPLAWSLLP

[5] = biological target: Serine/threonine-protein kinase pim-1 (Homo sapiens, UniProt P11309); assay: Inhibition of human PIM1 using ARK-RERTYSFGHHA as substrate incubated for 60 mins prior to substrate addition by topcount scintillation counting analysis in presence of [P33gamma]-ATP
Sequence of Serine/threonine-protein kinase pim-1 (P11309 whole entry): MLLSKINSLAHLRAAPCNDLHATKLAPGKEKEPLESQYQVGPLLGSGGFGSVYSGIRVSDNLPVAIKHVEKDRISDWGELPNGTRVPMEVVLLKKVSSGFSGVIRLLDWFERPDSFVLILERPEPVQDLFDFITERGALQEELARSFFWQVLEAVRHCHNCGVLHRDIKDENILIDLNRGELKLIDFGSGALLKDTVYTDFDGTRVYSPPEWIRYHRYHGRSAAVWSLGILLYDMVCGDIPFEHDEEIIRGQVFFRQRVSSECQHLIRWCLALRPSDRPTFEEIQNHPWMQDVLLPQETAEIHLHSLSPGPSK

[6] = Apparent permeability by PAMPA; type: physicochemical
[7] = Thermodynamic aqueous solubility of the compound at pH 7; type: physicochemical; conditions: buffer
[8] = biological target: Platelet-derived growth factor receptor (Homo sapiens, UniProt P09619+P16234); assay: Inhibition of PDGFR (unknown origin); type: protein-complex assay
Casein kinase II = Casein kinase II (Homo sapiens, UniProt P19784+P67870+P68400); assay: Inhibition of CK2 (unknown origin); type: protein-complex assay
Sequence of Casein kinase II (P67870 whole entry): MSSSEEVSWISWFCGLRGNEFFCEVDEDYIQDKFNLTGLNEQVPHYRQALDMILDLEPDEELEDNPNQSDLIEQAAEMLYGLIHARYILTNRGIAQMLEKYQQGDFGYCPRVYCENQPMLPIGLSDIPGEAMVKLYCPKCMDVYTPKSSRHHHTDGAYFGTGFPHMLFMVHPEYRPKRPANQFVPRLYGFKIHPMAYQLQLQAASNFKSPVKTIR
Sequence of Casein kinase II (P68400 whole entry): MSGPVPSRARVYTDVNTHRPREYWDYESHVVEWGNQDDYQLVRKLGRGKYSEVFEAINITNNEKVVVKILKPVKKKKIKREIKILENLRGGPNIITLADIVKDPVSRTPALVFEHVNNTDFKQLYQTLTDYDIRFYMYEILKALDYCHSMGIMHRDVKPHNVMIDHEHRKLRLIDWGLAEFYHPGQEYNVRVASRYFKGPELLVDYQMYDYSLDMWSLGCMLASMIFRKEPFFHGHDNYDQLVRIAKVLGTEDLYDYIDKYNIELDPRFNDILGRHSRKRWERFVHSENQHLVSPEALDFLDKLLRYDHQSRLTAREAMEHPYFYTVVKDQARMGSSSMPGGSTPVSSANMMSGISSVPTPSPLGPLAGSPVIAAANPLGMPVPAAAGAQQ
Sequence of Casein kinase II (P19784 whole entry): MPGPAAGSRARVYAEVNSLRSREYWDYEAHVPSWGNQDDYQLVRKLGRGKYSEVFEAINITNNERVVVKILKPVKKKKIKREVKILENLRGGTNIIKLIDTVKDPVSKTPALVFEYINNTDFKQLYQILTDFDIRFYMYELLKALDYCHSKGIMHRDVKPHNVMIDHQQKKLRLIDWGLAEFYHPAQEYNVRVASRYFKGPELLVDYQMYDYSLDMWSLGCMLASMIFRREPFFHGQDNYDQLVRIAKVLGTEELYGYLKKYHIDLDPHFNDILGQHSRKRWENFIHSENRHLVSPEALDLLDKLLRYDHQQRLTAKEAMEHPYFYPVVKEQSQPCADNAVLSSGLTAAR

[9] = biological target: Cyclin-dependent kinase 2 (Homo sapiens, UniProt P24941); assay: Inhibition of CDK2 (unknown origin)
[10] = biological target: Cell division cycle 7-related protein kinase (Homo sapiens, UniProt O00311); assay: Inhibition of CDC7 (unknown origin)
Sequence of Cell division cycle 7-related protein kinase (O00311 whole entry): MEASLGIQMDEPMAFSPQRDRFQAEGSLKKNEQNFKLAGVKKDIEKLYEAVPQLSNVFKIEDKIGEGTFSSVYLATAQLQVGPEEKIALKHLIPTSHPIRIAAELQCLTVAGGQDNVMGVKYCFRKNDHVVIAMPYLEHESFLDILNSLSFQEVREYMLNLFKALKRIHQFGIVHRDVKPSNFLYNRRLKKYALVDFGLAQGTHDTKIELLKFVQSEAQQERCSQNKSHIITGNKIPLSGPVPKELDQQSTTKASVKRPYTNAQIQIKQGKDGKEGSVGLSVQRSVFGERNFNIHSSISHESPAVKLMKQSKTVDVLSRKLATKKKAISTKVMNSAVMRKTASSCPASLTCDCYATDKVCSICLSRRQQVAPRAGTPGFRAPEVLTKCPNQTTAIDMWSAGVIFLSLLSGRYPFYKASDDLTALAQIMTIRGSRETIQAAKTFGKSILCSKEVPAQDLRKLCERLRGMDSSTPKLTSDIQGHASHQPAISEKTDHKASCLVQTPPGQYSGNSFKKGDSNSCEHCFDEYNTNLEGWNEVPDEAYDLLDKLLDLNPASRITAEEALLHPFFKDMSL

[11] = biological target: Glycogen synthase kinase-3 beta (Homo sapiens, UniProt P49841); assay: Inhibition of GSK3beta (unknown origin)
Sequence of Glycogen synthase kinase-3 beta (P49841 whole entry): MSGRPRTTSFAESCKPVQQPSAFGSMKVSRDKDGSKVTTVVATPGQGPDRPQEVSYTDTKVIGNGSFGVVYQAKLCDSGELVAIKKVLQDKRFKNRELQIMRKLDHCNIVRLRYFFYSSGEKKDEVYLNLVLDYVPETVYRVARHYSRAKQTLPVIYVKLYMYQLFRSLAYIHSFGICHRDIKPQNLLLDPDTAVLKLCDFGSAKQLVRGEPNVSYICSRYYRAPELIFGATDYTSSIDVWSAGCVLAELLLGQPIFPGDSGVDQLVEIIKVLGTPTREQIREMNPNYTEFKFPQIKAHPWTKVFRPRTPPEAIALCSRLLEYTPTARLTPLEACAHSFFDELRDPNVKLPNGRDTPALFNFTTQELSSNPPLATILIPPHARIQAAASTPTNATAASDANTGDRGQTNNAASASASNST

Row | SMILES | Papp A→B at 2 h [1] [×10⁻⁶ cm/s] | IC50 [2] [nM] | CLint scaled [3] [mL/min/kg] | IC50 [5] [nM] | other results
1 | O=C(CC1CNC(=O)c2cc(-c3cccc(F)c3)cn21)NCC1CCCCC1 (racemic) | 11.2 | 1110 | 48.5 | – | –
2 | CN1CCN(C[C@@H](NC(=O)C[C@H]2CNC(=O)c3cc(-c4cc(Cl)ccc4F)cn32)C2CCCCC2)CC1 | – | 147 | – | – | –
3 | NC[C@@H](NC(=O)C[C@H]1CNC(=O)c2cc(-c3ccnc(F)c3)cn21)c1ccccc1 | 0.9 | > 10000 | 6.5 | – | –
4 | O=C(CC1CNC(=O)c2cc(-c3cc(Cl)ccc3F)cn21)NCc1ccco1 (racemic) | – | – | – | 132 | IC50 [4]: 2410 nM
5 | O=C(C[C@H]1CNC(=O)c2cc(-c3cccc(F)c3)cn21)N[C@H](CO)C1CCCCC1 | 1.1 | 1530 | 14.6 | 16 | –
6 | O=C(CC1CNC(=O)c2cc(-c3ccc(F)c(F)c3)cn21)NCc1ccco1 (racemic) | – | 3640 | – | 125 | –
7 | CN1CCN(C[C@@H](NC(=O)C[C@H]2CNC(=O)c3cc(-c4cccc(Cl)c4)cn32)C(C)(C)C)CC1 | – | – | – | 5 | IC50 [4]: 262 nM
8 | O=C(CC1CNC(=O)c2cc(-c3cccc(C(F)(F)F)c3)cn21)NCC1CCCCC1 (racemic) | – | – | – | 375 | –
9 | CC(C)(C)CNC(=O)CC1CNC(=O)c2cc(-c3ccccc3F)cn21 (racemic) | – | – | – | 1720 | –
10 | O=C(C[C@H]1CNC(=O)c2cc(-c3cccc(F)c3)cn21)N[C@H](CO)Cc1ccccc1 | 1.3 | 3050 | 87.8 | 141 | –
11 | CN1CCN(C[C@@H](NC(=O)C[C@H]2CNC(=O)c3cc(-c4cccc(F)c4)cn32)C2CCCCC2)CC1 | – | 490 | 6.7 | 9 | IC50 [4]: 150 nM
12 | O=C(CC1CNC(=O)c2cc(-c3ccc(F)c(F)c3)cn21)NCC1CCCCC1 (racemic) | 11.8 | 1270 | 400 | 94 | –
13 | CC(C)(C)CNC(=O)CC1CNC(=O)c2cc(-c3cccc(C(F)(F)F)c3)cn21 (racemic) | – | – | – | 521 | –
14 | CC(C)(C)CNC(=O)CC1CNC(=O)c2cc(-c3cccc(F)c3)cn21 (racemic) | – | – | – | 1940 | –
15 | O=C(CC1CNC(=O)c2cc(-c3cccc(C(F)(F)F)c3)cn21)NCc1cccc(F)c1 (racemic) | – | – | – | 614 | –
16 | CN1CCN(C[C@@H](NC(=O)C[C@H]2CNC(=O)c3cc(-c4ccnc(F)c4)cn32)C2CCCCC2)CC1 | 0.33 | 2480 | – | 13 | IC50 [4]: 95 nM
17 | Cc1ccc(Cl)cc1-c1cc2n(c1)C(CC(=O)NCc1ccco1)CNC2=O (racemic) | – | – | – | > 5000 | IC50 [4]: > 5000 nM
18 | CC(C)(C)CNC(=O)CC1CNC(=O)c2cc(-c3ccccc3)cn21 (racemic) | – | – | – | 2540 | –

Row | SMILES | Papp A→B at 2 h [1] [×10⁻⁶ cm/s] | IC50 [2] [nM] | CLint scaled [3] [mL/min/kg] | IC50 [5] [nM] | other results
19 | CN1CCN(C(=O)C[C@H]2CNC(=O)c3cc(-c4cccc(F)c4)cn32)[C@@H](c2ccccc2)C1 | – | – | – | 233 | –
20 | CC(C)(C)CNC(=O)CC1CNC(=O)c2cc(-c3ccsc3)cn21 (racemic) | – | – | 81 | – | Papp [6]: 48 ×10⁻⁶ cm/s; Therm_solubility [7]: 68 mg/mL; IC50 [8]: > 10000 nM; IC50 (Casein kinase II): > 10000 nM
21 | O=C(CC1CNC(=O)c2cc(-c3cccc(Cl)c3)cn21)NCc1ccco1 (racemic) | 33.1 | 2430 | 97.4 | – | –
22 | O=C(CC1CNC(=O)c2cc(-c3cccc(C(F)(F)F)c3)cn21)NCC1CCOCC1 (racemic) | – | – | – | 838 | IC50 [4]: 3130 nM
23 | O=C(CC1CNC(=O)c2cc(-c3cn[nH]c3)cn21)NCc1cccc(F)c1 (racemic) | – | – | – | 1100 | IC50 [9]: 60 nM; IC50 [10]: 284 nM; IC50 [11]: 386 nM
24 | C[C@@H](CN1CCN(C)CC1)NC(=O)C[C@H]1CNC(=O)c2cc(-c3cccc(Cl)c3)cn21 | – | – | – | 530 | IC50 [4]: > 5000 nM
25 | CN(C)C1CCN(C[C@@H](NC(=O)C[C@H]2CNC(=O)c3cc(-c4cccc(Cl)c4)cn32)C2CCCCC2)CC1 | 1.01 | 480 | 5 | – | –
26 | O=C(CC1CNC(=O)c2cc(-c3ccnc(Cl)n3)cn21)NCC1CCCCC1 (racemic) | 0.9 | > 5000 | 197 | 33 | IC50 [4]: 1320 nM
27 | CC(C)(C)CNC(=O)CC1CNC(=O)c2cc(-c3ccncc3)cn21 (racemic) | – | – | – | 5470 | IC50 [11]: 4610 nM
28 | NC[C@@H](NC(=O)C[C@H]1CNC(=O)c2cc(-c3cccc(F)c3)cn21)c1ccccc1 | 0.6 | > 10000 | 8.3 | 10 | –
29 | O=C(CC1CNC(=O)c2cc(-c3ccccc3F)cn21)NCC1CCCCC1 (racemic) | 11.9 | 1790 | 400 | 124 | –
30 | NC[C@@H](NC(=O)C[C@H]1CNC(=O)c2cc(-c3cccc(F)c3)cn21)C1CCCCC1 | 0.8 | > 10000 | 10.1 | 12 | IC50 [4]: 275 nM
31 | CC(C)(C)CNC(=O)CC1CNC(=O)c2cc(-c3cccc(OC(F)(F)F)c3)cn21 (racemic) | – | – | – | 1270 | –
32 | O=C(C[C@H]1CNC(=O)c2cc(-c3cccc(F)c3)cn21)N[C@H](CO)c1ccccc1 | 2.7 | 3720 | 55 | 87 | –
33 | CC(C)(C)CNC(=O)CC1CNC(=O)c2cc(-c3ccc(OC(F)(F)F)cc3)cn21 (racemic) | – | – | – | > 10000 | –
34 | CC(C)(C)CNC(=O)CC1CNC(=O)c2cc(-c3ccc(F)cc3)cn21 (racemic) | – | – | – | 2550 | –
35 | CN1CCN(C[C@@H](NC(=O)C[C@H]2CNC(=O)c3cc(-c4ccc(F)c(F)c4)cn32)C2CCCCC2)CC1 | – | 156 | – | 26 | IC50 [4]: 250 nM
